# “Also recorded” adds a separate entry of the source. Where two headings read alike, the source gives them in different places.
# Legend:
# [1] = tested on: D. castellii phytase; assay: Substrate specificity, phosphate release kinetics (Table 6A); format: biochemical, Debaryomyces castellii; settings: 250 mM sodium acetate buffer, 1 mM CaCl2, pH 4, 37° C.
# Procedure: The reaction is triggered by the addition of the enzymatic extract (1 volume). The reaction is stopped by acidification of the medium with 20% trichloroacetic acid (1 volume of reaction medium+1 volume of acid). The amount of phosphate released is determined after various incubation times.
# [2] = tested on: D. castellii phytase; assay: Influence of effectors on phytase activity; format: biochemical, Debaryomyces castellii; settings: for inhibition of phytase activity: concentrations see Table 3
# [3] = biological target: T1, Debaryomyces castellii CBS 2923 phytase, native (wild type), SEQ ID No. 2 (Schwanniomyces capriottii, UniProt A2TBB4); assay: Influence of effectors on the phytase activity; format: biochemical; settings: for effect on the phytase activity (in words): Table 3
# Procedure: (§1) The amount of phosphate released is measured by colorimetery. The visualizing solution, prepared extemporaneously, contains iron sulphate (380 mM, 1 volume) and ammonium heptamolybdate (12 mM, 4 volumes). The absorbance at 700 nm is measured after 30 minutes of visualization at ambient temperature (1 volume of reaction medium+1 volume of visualizing solution), using a UV/visible spectrophotometer (Beckman DU 530).
# [4] = tested on: Debaryomyces castellii CBS2923 phytase; assay: Influence of the environment (additives, calcium, buffer molarity) on thermostability of the phytase; format: physicochemical
# Procedure: At the end of treatment, the extract is cooled in water at +4° C. […] Three types of elements are tested: • sugars or sugar alcohol: sucrose, lactose, trehalose, arabinose, glycerol, • the absence of calcium, • the molarity of the buffer. […] At the end of treatment, the extract is cooled in water to +4° C. […] Materials and Methods).
# [5] = tested on: Schwanniomyces occidentalis phytase; settings: Segueilha et al., 1992; cited from earlier work
# [6] = tested on: D. castellii phytase; assay: Hydrolysis of various inositol phosphates (Table 6B); format: biochemical, Debaryomyces castellii; settings: hydrolysis 30 minutes at 37° C., pH 4
# [7] = tested on: D. castellii phytase; assay: Kinetic constants of the native phytase on substrates; format: biochemical, Debaryomyces castellii; settings: +37° C., pH 4 with sodium phytate, pH 5.5 with p-NPP
# Procedure: (§2) The effect of pH on the phytase activity is determined using the following buffer solutions: 200 mM glycine-HCl, pH 2-3.5; 200 mM sodium acetate-acetic acid, pH 3.5-7; and 200 mM tris-HCl, pH 7-9. The reactions are carried out at +37° C. using the phytate as substrate. The optimum temperature is determined by varying the temperature from +30° C. to +80° C. […] After the heat treatment, the mixture is cooled in ice and the phytase activity is determined using the phytate as substrate.
# (§3) The kinetic constants are determined on 2 substrates.
# [8] = biological target: recombinant Debaryomyces castellii CBS 2923 phytase (recPhyt, expressed in Pichia pastoris), SEQ ID No. 2 (Schwanniomyces capriottii, UniProt A2TBB4)
# [9] = biological target: T1, Debaryomyces castellii CBS 2923 phytase, native (wild type), SEQ ID No. 2; assay: Kinetic constants (specificity study) of the native phytase; format: biochemical; settings: native enzyme
# Procedure: as §2, §1, §3
# [10] = tested on: recombinant phytase; assay: Kinetic constants of the recombinant phytase on substrates; format: biochemical, Debaryomyces castellii; settings: Lineweaver-Burk representation
# [11] = substrate: O=P(O)(O)O[C@H]1[C@H](OP(=O)(O)O)[C@@H](OP(=O)(O)O)[C@H](OP(=O)(O)O)[C@@H](OP(=O)(O)O)[C@H]1OP(=O)(O)O; assay: purified protein, by the assay type
# [12] = additive 10% in 250 mM acetate buffer pH 4, 1 mM calcium
# [13] = effector 5 mM, phytate control = 100
# [14] = CaCl2 0 mM (absence of calcium), 250 mM acetate buffer pH 4
# [15] = other: native enzyme, 37° C., pH 4 for sodium phytate, pH 5.5 for p-NPP
molecule,measurement,setting,value
O=P(O)(O)OCC(O)CO (stereo in doubt) [L-α-glycerophosphate],% activity,[1]; substrate 4 mM,78%
OCCS [2-mercaptoethanol],effect on phytase activity,"[2]; inhibitors tested, see Table 3",absence of effect
same,% activity,"[3]; effector 3 mM, phytate control 9 mM = 100",107%
Nc1ncnc2c1ncn2[C@@H]1O[C@H](COP(=O)(O)OP(=O)(O)O)[C@@H](O)[C@H]1O [Adenosine 5′-diphosphate],% activity,[1]; substrate 4 mM,120%
Nc1ncnc2c1ncn2[C@@H]1O[C@H](COP(=O)(O)O)[C@@H](O)[C@H]1O [Adenosine 5′-monophosphate],% activity,[1]; substrate 4 mM,50%
Nc1ncnc2c1ncn2[C@@H]1O[C@H](COP(=O)(O)OP(=O)(O)OP(=O)(O)O)[C@@H](O)[C@H]1O [Adenosine 5′-triphosphate],% activity,[1]; substrate 4 mM,133%
"O=C[C@@H](O)[C@H](O)[C@H](O)CO [Arabinose, arabinose]",activity after 1 h at 20° C.,[4]; [12],90
same,activity after 1 h at 66.5° C.,[4]; [12],36
[Ca+2].[Cl-].[Cl-] [CaCl2],% activity,[2]; [13],90%
same,activity after 1 h at 20° C.,[4]; [14],100
same,activity after 1 h at 66.5° C.,[4]; [14],1
[Cl-].[Cl-].[Co+2] [CoCl2],% activity,[2],42.3%
[Cl][Cr][Cl] [CrCl2],% activity,[2]; [13],107.6%
[Cl][Cu][Cl] [CuCl2],% activity,[2]; [13],66.6%
same,effect on phytase activity,[5],sensitive
O=C(O)C(O)COP(=O)(O)O (stereo not drawn) [D(−)3-phosphoglyceric acid],% activity,[1]; substrate 4 mM,95%
O=C(O)CN(CCN(CC(=O)O)CC(=O)O)CC(=O)O [EDTA],% activity,[2],104.5%
[Cl][Fe]([Cl])[Cl] [FeCl3],% activity,[2]; [13],92%
O=C(CO)[C@@H](O)[C@H](O)[C@H](O)COP(=O)(O)O [Fructose-6-phosphate],% activity,[1]; substrate 4 mM,35%
O=C[C@H](O)[C@@H](O)[C@H](O)[C@H](O)COP(=O)(O)O [Glucose-6-phosphate],% activity,[1]; substrate 4 mM,82%
"OCC(O)CO [Glycerol, glycerol]",activity after 1 h at 20° C.,[4]; [12],96
same,activity after 1 h at 66.5° C.,[4]; [12],56
[Cl][Hg][Cl] [HgCl2],% activity,[2]; [13],96.2%
O=P(O)(O)OC1[C@H](O)[C@H](O)C(O)[C@H](O)[C@H]1O (stereo partly shown) [Ins(1)P1],% activity,[6]; substrate 1 mM,58%
"O=P(O)(O)O[C@H]1[C@H](O)[C@@H](O)[C@H](OP(=O)(O)O)[C@@H](O)[C@H]1O [Ins(1,4)P2]",% activity,[6]; substrate 0.1 mM,65%
"O=P(O)(O)O[C@@H]1[C@H](O)[C@H](O)[C@@H](OP(=O)(O)O)[C@H](OP(=O)(O)O)[C@H]1O [Ins(1,4,5)P3]",% activity,[6]; substrate 0.1 mM,56%
O=P(O)(O)OC1[C@@H](O)[C@H](O)C(O)[C@H](O)[C@H]1O (stereo partly shown) [Ins(2)P1],% activity,[6]; substrate 1 mM,84%
"OC[C@H]1O[C@@H](O[C@H]2[C@H](O)[C@@H](O)C(O)O[C@@H]2CO)[C@H](O)[C@@H](O)[C@H]1O (stereo partly shown) [Lactose, lactose]",activity after 1 h at 20° C.,[4]; [12],95
same,activity after 1 h at 66.5° C.,[4]; [12],47
[Cl-].[Cl-].[Mg+2] [MgCl2],% activity,[2]; [13],68.7%
[Cl][Mn][Cl] [MnCl2],inhibition of phytase activity,[2],72%
same,% activity,[2]; [13],28.8%
O=C1CCC(=O)N1Br [N-bromosuccinimide],% activity,"[2]; effector 0.1 and 1 mM, phytate control = 100",1%
same,effect on phytase activity,"[2]; inhibitors tested, see Table 3",completely inhibits
same,effect on the phytase activity (in words),[3],completely inhibits the phytase activity
C=C(OP(=O)(O)O)C(=O)O [Phospho(enol)pyruvate],% activity,[1]; substrate 4 mM,130%
"O=P(O)(O)O[C@H]1[C@H](OP(=O)(O)O)[C@@H](OP(=O)(O)O)[C@H](OP(=O)(O)O)[C@@H](OP(=O)(O)O)[C@H]1OP(=O)(O)O [Phytic acid, myo-inositol hexakisphosphate]",% activity,[1]; substrate 9 mM (control),100%
same,% activity,[6]; substrate 9 mM (control),91%
"O=P(O)(O)O[C@H]1[C@H](OP(=O)(O)O)[C@@H](OP(=O)(O)O)[C@H](OP(=O)(O)O)[C@@H](OP(=O)(O)O)[C@H]1OP(=O)(O)O [Sodium phytate, sodium phytate]",Vm,[7],35.8 µmol/min/mg
same,affinity (in words),[8]; phytate compared with p-NPP,greater affinity
"OC[C@H]1O[C@@](CO)(O[C@H]2O[C@H](CO)[C@@H](O)[C@H](O)[C@H]2O)[C@@H](O)[C@@H]1O [Sucrose, sucrose]",activity after 1 h at 20° C.,[4]; [12],97
same,activity after 1 h at 66.5° C.,[4]; [12],57
"OC[C@H]1O[C@H](O[C@H]2O[C@H](CO)[C@@H](O)[C@H](O)[C@H]2O)[C@H](O)[C@@H](O)[C@@H]1O [Trehalose, trehalose]",activity after 1 h at 20° C.,[4]; [12],94
same,activity after 1 h at 66.5° C.,[4]; [12],56
[Cl-].[Cl-].[Zn+2] [ZnCl2],% activity,[2]; [13],57%
same,effect on phytase activity,[5],sensitive
O=P(O)(O)O[C@H]1[C@H](OP(=O)(O)O)[C@@H](OP(=O)(O)O)[C@H](OP(=O)(O)O)[C@@H](OP(=O)(O)O)[C@H]1OP(=O)(O)O [calcium phytate],affinity of the phytase relative to p-nitrophenyl phosphate (pNPP),[9]; calcium phytate versus pNPP,4 times
II [iodine],% activity,[2],25.6%
same,inhibition of phytase activity,[2],75%
O=C(O)CI [iodoacetic acid],% activity,[2],100%
same,effect on phytase activity,[2],does not cause any inhibition; also recorded: absence of effect
same,effect on the phytase activity (in words),[3],does not cause any inhibition of the activity
"O=[N+]([O-])c1ccc(OP(=O)(O)O)cc1 [pNPP, p-nitrophenyl phosphate]",Km,[7],2270 µM
same,Vm,[7],30.9 µmol/min/mg
same,% activity,[1]; substrate 4 mM,135%
same,Km,"[8]; recombinant enzyme, Lineweaver-Burk, 37° C., pH 4 for sodium phytate, pH 5.5 for p-NPP",2050 µM
same,Km,"[9]; 37° C., pH 4 for sodium phytate, pH 5.5 for p-NPP",2270 µM
same,Km,[10],2050 µM
same,Vm,[10],274.6 U/mg
N[C@@H](Cc1c[nH]c2ccccc12)C(=O)O [tryptophan],effect on the phytase activity (in words),[3],re-establishes the activity
"recombinant Debaryomyces castellii CBS 2923 phytase (recPhyt, expressed in Pichia pastoris), SEQ ID No. 2 (Schwanniomyces capriottii) (protein) MVSVSKLINNGLLLVGQGAYQDLASPQQASVEQYNIIRFLGGAAPYIQNKGFGISTDIPDQCTLEQVQLFSRHGERYPSTGSGKKYKAVYEKLMSYNGTFKGELAFLNDDYEYFVPDSVYLEKETSPKNSDSIYAGTTDAMKHGIAFRTKYGELFDTNDTLPVFTSNSGRVYQTSQYFARGFMGDDFSNDTVKTNIISEDADMGANSLTPRDGCFNYNENANTAIVDEYTTEYLTKALNRFKASNPGLNITEDDVSNLFGYCAYELNVKGASPMCDIFTNEEFIQYSYSVDLDDYYSNSAGNNMTRVIGSTLLNASLELLNHDKNENKIWLSFTHDTDIEIFHSAIGILIPDEDLPVDYTPFPSPYSHVGITPQGARTIIEKYACGNESYVRYVINDAVIPIKKCSSGPGFSCNLNDYNDYVAERVAGTNYVEQCGNNNASAVTFYWDYETTNYTASLINS",Km,[11]; 37.0 °C,240 µM
same,Vmax,[11]; 37.0 °C,137.8 U/mg
"Debaryomyces castellii CBS 2923 phytase, native (wild type), SEQ ID No. 2 (Schwanniomyces capriottii) (protein) VSVSKLINNGLLLVGQGAYQDLASPQQASVEQYNIIRFLGGAAPYIQNKGFGISTDIPDQCTLEQVQLFSRHGERYPSTGSGKKYKAVYEKLMSYNGTFKGELAFLNDDYEYFVPDSVYLEKETSPKNSDSIYAGTTDAMKHGIAFRTKYGELFDTNDTLPVFTSNSGRVYQTSQYFARGFMGDDFSNDTVKTNIISEDADMGANSLTPRDGCFNYNENANTAIVDEYTTEYLTKALNRFKASNPGLNITEDDVSNLFGYCAYELNVKGASPMCDIFTNEEFIQYSYSVDLDDYYSNSAGNNMTRVIGSTLLNASLELLNHDKNENKIWLSFTHDTDIEIFHSAIGILIPDEDLPVDYTPFPSPYSHVGITPQGARTIIEKYACGNESYVRYVINDAVIPIKKCSSGPGFSCNLNDYNDYVAERVAGTNYVEQCGNNNASAVTFYWDYETTNYTASLINS",Km,[11]; [15],532 µM
same,Vmax,[11]; [15],35.8 µmol/min/mg

# — US8003360B2, “Debaryomyces castellii phytase” (Adisseo France S.A.S., priority 2005, dated 2011)
